Test results reported in patent publication US20260355330A1, “CELL PENETRATING PEPTIDES AND USES THEREOF” (VECTIOPEP OÜ, priority 2022, published 2026).
Positions of bridges follow the written chain, without caps; N, C: chain ends. Non-standard residues stand in square brackets, D forms with d. Residues, ends and D or L forms follow the SMILES beside them. Chains are numbered I, II in the order given. *: point of attachment. Arachidoyl = CCCCCCCCCCCCCCCCCCCC(=O)*; Stearoyl = CCCCCCCCCCCCCCCCCC(=O)*; Dab = NCC[C@H](N)C(=O)O

Columns and labels:
BALB/c mice = test: Live animal imaging 1-48 hours post administration of NF424/mRNA or NF424/pDNA complexes; format: in vivo
Experimental: FIG. 4: Live animal imaging 1-48 hours post administration of NF424/mRNA or NF424/pDNA complexes. Reporter gene product levels were evaluated with full body imager at 1 h, 6 h, 12 h, 24 h, and 48 h post-injection.
(§1) The transfection complexes (CPP/mRNA) were formed using 10 μg of mRNA mixed with each peptide at indicated charge ratios (CRs) in MQ water in a final volume of 100 μl. CRs were calculated theoretically and account for both the positive charges of the peptide and negative charges of the nucleic acid. The transfection complexes (CPP/mRNA and CPP/pDNA) were formed using 50 μg of mRNA mixed with each peptide at indicated charge ratios (CRs) in MQ water in a final volume of 168 μl. The complexes were incubated for 30 minutes at room temperature and then mixed with equal volume of 10% glucose (resulting in a final solution of 5% glucose in a total volume of 200 μl for 10 μg dose groups and 336 μl for 50 μg dose groups) and immediately injected intravenously via the tail vein.
100 μl of luciferin (PerkinElmer), at a concentration of 15 mg/ml, was intraperitoneally injected into the mice. After 10 min, the mice were imaged using the In Vivo Imaging System (IVIS Lumina II, PerkinElmer).
Live animal imaging was used to track the timepoints of mRNA and pDNA transfection with NFs (FIG. 4). The CPP used was NF424, complexes were formed in parallel with mRNA or pDNA and injected through the tail vein of BALB/c mice. The reporter gene expression levels were evaluated with full body imager at 1 h, 6 h, 12 h, 24 h and 48 h post-injection.

spleen of BALB/c mice = test: In vivo delivery of mRNA with CPPs - reporter levels in the spleen; details: for Efficacy of mRNA delivery into the spleen in vivo / Delivery of mRNA in vivo compared to NF54 and/or NF55: in words; for Efficacy of mRNA delivery into the spleen in vivo: FIG. 5 / Table 5; for Delivery of mRNA in vivo compared to NF54 and/or NF55: comparator NF54 and/or NF55; for Reporter levels in the spleen (RLU): mRNA, tail vein injection, spleens harvested 16 hours after single injection, whole tissue homogenate
Experimental: FIG. 5: Delivery of mRNA with CPPs in vivo—reporter levels in the spleen. Spleens were harvested post mortem 16 hours post-injection. The reporter levels (RLU) were evaluated from the whole tissue homogenate.
as §1
(§2) The reporter gene (luciferase) expression levels were evaluated from the tissue homogenate post mortem 16-24 h after single injection.
CPPs and mRNA complexes were injected through the tail vein of BALB/c mice, spleens were harvested 16 hours after the single injection and reporter signal was measured from the whole tissue homogenate (FIG. 5 and Table 5).

CHO-K1 cells = test: Delivery of reporter mRNA with CPPs in cell culture (luciferase luminescence 24 h post-transfection); format: cell-based; details: for Average RLU/mg (reporter levels post-transfection of mRNA): firefly luciferase mRNA, 0.1 μg per well, charge ratio 3:1, serum containing media, 24 h, RLU normalised to total protein in lysate; for Efficiency of mRNA transfection/delivery / Delivery of mRNA compared to NF54 / Delivery of mRNA compared to NF55: in words; for Efficiency of mRNA transfection/delivery: FIG. 1 / Table 2, cell culture; for Delivery of mRNA compared to NF54: comparator NF54; for Delivery of mRNA compared to NF55: comparator NF55
Experimental: FIG. 1: Delivery of reporter mRNA with CPPs in cell culture—evaluation of reporter levels post-transfection (relative light units normalised to total protein in the cell lysate (RLU/mg)). Naked mRNA treated cells were used as controls and Lipofectamine3000 (LF3000) was used to compare the transfection efficacy with a liposome-based transfection reagent.
Adherent CHO-K1 cells were grown in Dulbecco's Modified Eagle's Medium (DMEM), which were supplemented with 0.1 mM non-essential amino acids, 1.0 mM sodium pyruvate, 100 U/ml penicillin, and […]. For complete media, 10% (final) fetal bovine serum (FBS) was added. Cells were maintained in a humidified incubator at 37 °C, 5% CO2. Cell viability and confluence was assessed daily and the cell density was reduced regularly. For cell counting, we used the CytoSMART cell counter accompanied by 0.4% trypan blue staining prior measurement. The multi-well plates with cell cultures used for experiments were incubated in a humidified incubator at 37 °C, 5% CO2.
For in vitro experiments 0.1 μg of nucleic acid (plasmid DNA (pDNA) or mRNA) was used per 96-well plate well. For CPP/NA complex formation, the diluted NA was mixed with CPP in water. Complexes were formed based on the theoretical charge ratio (CR) of positive charges from the peptide in excess to the negative charges from nucleic acid backbone, at charge ratio 3:1 with peptide in excess. Commercial reagent Lipofectamine3000 (LF3000) was used according to the manufacturer's recommendations for the transfection of adherent cells.
For reporter luminescence (expressed from firefly luciferase encoding mRNA or plasmid pDNA) assessment in adherent cell culture, 10,000 cells per 96-well plate well were seeded in 100 μl of media one day prior to transfection. Shortly before transfection, cell media was replaced with 100 μl of serum containing (10% foetal bovine serum) DMEM media. CPPs and mRNA or pDNA were mixed at a charge ratio 3:1 in ultrapure water and incubated at room temperature before addition to cells in serum containing media. Cells were transfected with 0.1 μg of mLuc per well.
24 hours post-transfection, the media was aspirated, cells were washed with 1×PBS, and 30 μl of lysis buffer (0.1% Triton X100 in 1×PBS) was added. Cells were incubated with lysis buffer for 20 min. to lyse the cells. From the lysate, 20 μl was transferred to a black frame white well 96-well plate for luminescence measurement after addition of substrate luciferin (PerkinElmer) in buffer. The luminescence signal was detected with GloMax® 96 microplate luminometer equipped with GloMax® 1.9.2 software (Promega). RLU values were converted to RLU/mg by normalization to total protein in cell lysate, reflecting total number of cells. For protein detection, a Pierce™ BCA Protein Assay Kit was used.
The present inventors have previously reported CPPs developed from the NickFect (NF) and PepFect (PF) families for plasmid (pDNA), siRNA and miRNA delivery (see, e.g. WO 2020/144317, WO 2010/039088 and WO 2012/113846). With the emergence of mRNA-based therapeutics, it was decided to investigate peptides for their ability to deliver mRNA. It was assumed that CPPs that are efficient for siRNA and miRNA delivery, e.g. histidine containing CPPs (Porosk et. al. (2019)), may be good candidates for the delivery of mRNA. Therefore, CPPs from each main family (NF55-, PF14- and NF70-derived CPPs) were tested for mRNA delivery/transfection. Naked mRNA treated and untreated cells were used as control groups. LF3000 was used to compare the transfection efficacy of liposome-based transfection reagents with the CPPs (FIG. 1).

[1] = system: liver, spleen, lung, kidney, heart and thymus of Balb/c mice; test: Biodistribution of reporter levels post-transfection of mRNA or pDNA with CPPs in vivo (tissue homogenate)
Experimental: FIG. 3: Biodistribution of reporter levels post-transfection of mRNA or pDNA with NFs or PFs CPPs in vivo. Reporter gene product levels were evaluated from the whole tissue homogenates collected post mortem. Results are shown as the fold change to mRNA or pDNA treated mice.
as §1, §2
In order to determine to which organs in vivo mRNAs may be delivered to with NickFect or PepFect CPPs, mRNA complexes with NF55, NF71 and PF14 were formed and injected through the tail vein of Balb/c mice (FIG. 3A). The organs were harvested 24 hours after the single injection and reporter signal was measured from whole tissue homogenates. The biodistribution of reporter levels was measured in liver, spleen, lung, kidney, heart and thymus.
In order to compare the biodistribution profiles between harvested organs when using either mRNA or pDNA as cargo, NF424 was used to transfect these 2 types of nucleic acids in vivo (FIG. 3B and Table 4).

[2] = NF424 delivery of mRNA, fold change to mRNA treated mice
[3] = NF424 delivery of pDNA, fold change to pDNA treated mice

| SMILES | Time at which reporter signal was detected in the spleens (BALB/c mice; NF424/mRNA complexes, 10 μg mRNA, tail vein) | Time at which reporter signal was visible in the lungs (BALB/c mice; NF424/pDNA complexes, 50 μg pDNA, tail vein) | Detected signal, mRNA vs pDNA (BALB/c mice; in words, 10 μg mRNA vs 50 μg pDNA) | Main organ of mRNA delivery (live imaging) (BALB/c mice; in words, mRNA cargo) | Main organ of pDNA delivery (live imaging) (BALB/c mice; in words, pDNA cargo) | Efficacy of mRNA delivery into the spleen in vivo (spleen of BALB/c mice) | Delivery of mRNA in vivo compared to NF54 and/or NF55 (spleen of BALB/c mice) | Reporter levels in the spleen (RLU) (spleen of BALB/c mice) | Average RLU/mg (reporter levels post-transfection of mRNA) (CHO-K1 cells) | Efficiency of mRNA transfection/delivery (CHO-K1 cells) | Delivery of mRNA compared to NF54 (CHO-K1 cells) | Delivery of mRNA compared to NF55 (CHO-K1 cells) | Fold/mRNA, Liver [1, 2] | Fold/mRNA, Lung [1, 2] | Fold/mRNA, Spleen [1, 2] | Fold/pDNA, Liver [1, 3] | Fold/pDNA, Lung [1, 3] | Fold/pDNA, Spleen [1, 3] | Organ distribution of mRNA delivery ([1]; in words, mRNA cargo) | Organ distribution of pDNA delivery ([1]; in words, pDNA cargo) |
| --- | --- | --- | --- | --- | --- | --- | --- | --- | --- | --- | --- | --- | --- | --- | --- | --- | --- | --- | --- | --- |
| CCCCCCCCCCCCCCCCCC(=O)N[C@@H](C)C(=O)NCC(=O)N[C@@H](Cc1ccc(O)cc1)C(=O)N[C@@H](CC(C)C)C(=O)N[C@@H](CC(C)C)C(=O)NCC(=O)NCC[C@H](N)C(=O)N[C@@H](CC(C)C)C(=O)N[C@@H](CCCCN)C(=O)N[C@@H](C)C(=O)N[C@@H](CC(C)C)C(=O)N[C@@H](C)C(=O)N[C@@H](C)C(=O)N[C@@H](CC(C)C)C(=O)N[C@@H](C)C(=O)N[C@@H](CCCCN)C(=O)N[C@@H](C)C(=O)N[C@H](C(=O)N[C@@H](CC(C)C)C(N)=O)[C@@H](C)CC [NF424] (I: H-[Dab]LKALAALAKAIL-NH2 / II: Stearoyl-AGYLLG; amide I:1-II:C) | ≤ 1 h | 6 h | the detected signal was much higher from mRNA | delivers mRNA mostly to the spleen | pDNA to the lungs | highest reporter levels after mRNA delivery into the spleen in vivo | significantly improved delivery of mRNA in vivo over both NF54 and NF55 | 427 566 RLU | 2 590 000 000 RLU/mg | the most efficient | good improvement in delivery of cargo such as mRNA over NF54 | significantly improved delivery of mRNA over NF55 | 9 Fold | 98 Fold | 8 330 Fold | 2 Fold | 11 Fold | 5 Fold | the highest expression levels were found in the spleen of treated mice | the main expression was found in lungs and liver |
| CCCCCCCCCCCCCCCCCCCC(=O)N[C@@H](C)C(=O)NCC(=O)N[C@@H](Cc1ccc(O)cc1)C(=O)N[C@@H](CC(C)C)C(=O)N[C@@H](CC(C)C)C(=O)NCC(=O)NCC[C@H](N)C(=O)N[C@@H](CC(C)C)C(=O)N[C@@H](CCCCN)C(=O)N[C@@H](C)C(=O)N[C@@H](CC(C)C)C(=O)N[C@@H](C)C(=O)N[C@@H](C)C(=O)N[C@@H](CC(C)C)C(=O)N[C@@H](C)C(=O)N[C@@H](CCCCN)C(=O)N[C@@H](C)C(=O)N[C@H](C(=O)N[C@@H](CC(C)C)C(N)=O)[C@@H](C)CC [NF426] (I: H-[Dab]LKALAALAKAIL-NH2 / II: Arachidoyl-AGYLLG; amide I:1-II:C) |  |  |  |  |  | delivered mRNA into the spleen in vivo with high efficacy | good improvement in mRNA delivery in vivo over NF55 | 259 807 RLU | 1 960 000 000 RLU/mg | the most efficient | equivalent delivery of cargo such as mRNA to NF54 | good improvement in delivery of mRNA over NF55 |  |  |  |  |  |  |  |  |
| CCCCCCCCCCCCCCCCCC(=O)N[C@@H](C)C(=O)NCC(=O)N[C@@H](Cc1ccc(O)cc1)C(=O)N[C@@H](CC(C)C)C(=O)N[C@@H](CC(C)C)C(=O)NCC(=O)NC[C@H](N)C(=O)N[C@H](C(=O)N[C@@H](CC(N)=O)C(=O)N[C@@H](CC(C)C)C(=O)N[C@@H](CCCCN)C(=O)N[C@@H](C)C(=O)N[C@@H](CC(C)C)C(=O)N[C@@H](C)C(=O)N[C@@H](C)C(=O)N[C@@H](CC(C)C)C(=O)N[C@@H](C)C(=O)N[C@@H](CCCCN)C(=O)N[C@@H](C)C(=O)N[C@H](C(=O)N[C@@H](CC(C)C)C(N)=O)[C@@H](C)CC)[C@@H](C)CC [NF550] |  |  |  |  |  |  |  | 33 032 RLU | 441 000 000 RLU/mg |  |  |  |  |  |  |  |  |  |  |  |
| CCCCCCCCCCCCCCCCCC(=O)N[C@@H](C)C(=O)NCC(=O)N[C@@H](Cc1ccc(O)cc1)C(=O)N[C@@H](CC(C)C)C(=O)N[C@@H](CC(C)C)C(=O)NCC(=O)NCC[C@H](N)C(=O)N[C@H](C(=O)N[C@@H](CC(N)=O)C(=O)N[C@@H](CC(C)C)C(=O)N[C@@H](CCCCN)C(=O)N[C@@H](C)C(=O)N[C@@H](CC(C)C)C(=O)N[C@@H](C)C(=O)N[C@@H](C)C(=O)N[C@@H](CC(C)C)C(=O)N[C@@H](C)C(=O)N[C@@H](CCCCN)C(=O)N[C@@H](C)C(=O)N[C@H](C(=O)N[C@@H](CC(C)C)C(N)=O)[C@@H](C)CC)[C@@H](C)CC [NF553] |  |  |  |  |  |  |  | 57 989 RLU | 1 750 000 000 RLU/mg | the most efficient |  | improved delivery of mRNA over NF55 |  |  |  |  |  |  |  |  |
